For assay [1], the system named is C57/BL6 mice (マウス(C57/BL6)). The experiment in a line: Serum iron in mice given hepcidin. The settings on record: Fig. 7C. The assay is classed as in vivo, mouse.
Assay [2] relates to HepG2 cells, human liver cancer-derived (ヒト肝癌由来細胞HepG2). The experiment in a line: Intracellular iron (ferritin ELISA) in HepG2 cells treated with hepcidin. The assay is classed as cell-based. The note with it: Fig. 7A.
Assay [3] relates to COS-1 cells, monkey kidney-derived fibroblasts (サル腎臓由来線維芽細胞(COS-1)). Put plainly: Intracellular iron (ferritin ELISA) in FPN-EGFP-expressing COS-1 cells treated with hepcidin. The assay is classed as cell-based. The note with it: COS-1 expressing FPN-EGFP, Fig. 7B.
For assay [4], the system named is human ferroportin fused to EGFP (FPN-EGFP) (ヒトのフェロポーチン(FPN)にEGFPを融合させたタンパク質). The experiment in a line: Western blot of ferroportin (FPN-EGFP) in HEK293 cells treated with hepcidin. The assay is classed as cell-based. The settings on record: HEK293 expressing FPN-EGFP. For orientation: Immunoblotting shows a protein as a band on a membrane.
For assay [5], the target named is T1, hepcidin (ヘプシジン) (Homo sapiens, UniProt P81172).
T1 sequence (P81172 60-84 limits assumed): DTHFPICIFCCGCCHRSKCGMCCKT
The experiment in a line: Binding of the 12-amino-acid peptide to hepcidin, linear versus cyclised.

Assay [6] addresses T1, hepcidin (ヘプシジン). The experiment in a line: Phage display screening (Ph.D-12 library) on hepcidin-immobilised beads. The assay is classed as binding. Also noted: ビオチン化ヘプシジン(Bachem社製); purchased Bachem. The settings on record: displayed on M13 phage pIII; most frequent sequence among 64 plaques after the 5th panning.
The test system of assay [7] is renal anemia model mice (腎性貧血モデルマウス). The experiment in a line: Effect of HBP in renal anemia model mice (adenine sulfate-induced renal failure). The assay is classed as in vivo, mouse.
Assay [8] addresses T1, hepcidin (ヘプシジン). Put plainly: Bio-layer interferometry (BLI) of the peptide on biotinylated hepcidin (Octet K2). The assay is classed as binding. Also on record: ビオチン化ヘプシジン(Bachem社製); purchased Bachem. The settings on record: peptide 2.5, 4, 6, 8 or 10 μM.
[9] abbreviates: peptide added simultaneously with hepcidin.
The mark [10] stands for this setting: AdS-induced renal anemia mice, HBP day 15 to day 21 (7 times), blood on day 22, versus control (PBS), Fig. 4C-E.

Positions of bridges follow the written chain, without caps; N, C: chain ends. Residues, ends and D or L forms follow the SMILES beside them. No end group written: not given here.

Consider “ヘプシジン: human hepcidin (Peptide Institute, Inc.) (DTHFPICIFCCGCCHRSKCGMCCKT; ends and bridges not checked; cysteine pairing not given here; UniProt P81172 60-84, looked up) [reference compound]”, for which the serum iron result in assay [1] (hepcidin alone) is recorded as “血中の鉄量は減少した”. For the same compound, the “intracellular iron (as ferritin)” value in assay [2] (hepcidin alone) and in assay [3] (hepcidin alone) was “細胞内の鉄量は増加した” each time. The “amount of ferroportin (FPN-EGFP)” value in assay [4] (hepcidin added alone, Fig. 6 lane 3) is listed as “フェロポーチンの量(FPN-EGFP量)は低下した”.

Take WDMWPSMDWKAE: the binding to hepcidin result is on record as “ヘプシジンに特異的に結合する” in assay [5] (cyclised form) and “線状ではヘプシジンに結合しない” in assay [5] (linear form). Moreover, the “possibility of specific binding to hepcidin” value in assay [6] is given as “ヘプシジンに特異的に結合する可能性が示された”.

Take `CSCC[C@@H]1NC(=O)[C@H](CO)NC(=O)[C@@H]2CCCN2C(=O)[C@H](Cc2c[nH]c3ccccc23)NC(=O)[C@H](CCSC)NC(=O)[C@H](CC(=O)O)NC(=O)[C@H](Cc2c[nH]c3ccccc23)NC(=O)[C@H](CO)NC(=O)[C@@H](NC(=O)[C@H](C)NC(C)=O)CSSC[C@@H](C(=O)NCC(N)=O)NC(=O)CNC(=O)[C@H](CCC(=O)O)NC(=O)[C@H](C)NC(=O)[C@H](CCCCN)NC(=O)[C@H](Cc2c[nH]c3ccccc23)NC(=O)[C@H](CC(=O)O)NC1=O` [HBP, ACSWDMWPSMDWKAEGCG] (Ac-ACSWDMWPSMDWKAEGCG-NH2; disulfide 2-17): the serum iron result in assay [1] (peptide given simultaneously with hepcidin) is listed as “血中鉄量の減少が抑制された”. The “intracellular iron (as ferritin)” value in assay [2] (setting [9]) was “細胞内鉄量の増加が抑制された”. Further, in assay [7] (setting [10]), the “hematocrit (HCt)” value is listed as “有意に上昇した”, the “hemoglobin (Hb)” value is “有意に上昇した” and the “red blood cell count (RBC)” value is given as “有意に上昇した”. In addition, the “blood biochemistry showing improvement of anemia and renal failure” value in assay [7] (AdS-induced renal failure mice, HBP day 15 to day 21, day 22, BUN, CRE, serum iron, TSAT, ferritin, CRP, hepcidin, EPO, Fig. 5A-H) is “貧血の改善及び腎不全の改善を示す結果が確認された”. Moreover, the “intracellular iron (as ferritin)” value in assay [3] (setting [9]) was “細胞内鉄量の増加が抑制された”. For the same compound, the Kd in assay [8] (biotinylated hepcidin on streptavidin sensor chip, read-out: dissociation constant) came to 29 nM. Besides, the “specific binding to hepcidin” value in assay [8] (Fig. 3) is “ヘプシジンに特異的に結合することが確認された”. For the same compound, the “amount of ferroportin (FPN-EGFP)” value in assay [4] (peptide added simultaneously with human hepcidin, Fig. 6 lanes 4 and 5) is on record as “FPN-EGFP量の低下が抑制された”.
